# Measured values taken from the RepoRT retention time repository.
# Test: RP, Waters ACQUITY UPLC BEH C8, 100 × 2.1 mm, 1.7 µm, 55 °C, 0.6 mL/min, estimated dead time 0.37 min; A: 50% water + 25% acetonitrile + 25% isopropanol + 0.05% acetic acid + 20 µM phosphoric acid + 5 mM ammonium acetate; B: 50% acetonitrile + 50% isopropanol + 0.05% acetic acid + 5 mM ammonium acetate; gradient (min/%B) 0/1 0.1/1 2/30 11.5/90 12/99.9 12.5/99.9 12.55/65 12.65/30 12.75/1 12.95/1 13.25/1
# Conditions: stereoisomer not certain
row,Compound,LC retention time
1,CC1=CCCC(C)(C)C1/C=C/C(C)=C/C=C/C(C)=C/C=C/C=C(C)/C=C/C=C(C)/C=C/C1=C(C)CCCC1(C)C (stereo not drawn) [Alpha-carotene],8.56 min
2,C=C1C=CCC(C)(C)C1C=CC(C)=CC=CC(C)=CC=CC=C(C)C=CC=C(C)C=CC1=C(C)CC(O)CC1(C)C (stereo not drawn) [Anhydrolutein I],5.77 min
3,CCCCCCCCCCCCCCCCCCCC(=O)OC(CC(=O)[O-])C[N+](C)(C)C (stereo not drawn) [Arachidyl carnitine CAR(20:0)],2.88 min
4,CC1=C(/C=C/C(C)=C/C=C/C(C)=C/C=C/C=C(C)/C=C/C=C(C)/C=C/C2=C(C)CCCC2(C)C)C(C)(C)CCC1 [Beta-carotene],8.56 min
5,CC(C=CC=C(C)C=CC1=C(C)CCCC1(C)C)=CC=CC=C(C)C=CC=C(C)C=CC1=C(C)CC(O)CC1(C)C (stereo not drawn) [Beta-cryptoxanthin],6.41 min
6,CCCCCCCCCCCC=CC(O)C(CO)NC(=O)CCCCCCCCCCCCCCCCCCC (stereo not drawn) [Cer(d16:1/20:0)],7.27 min
7,CCCCCCCCCCCC=CC(O)C(CO)NC(=O)CCCCCCCCCCCCCCCCCCCCC (stereo not drawn) [Cer(d16:1/22:0)],7.93 min
8,CCCCCCCCCCCC=CC(O)C(CO)NC(=O)CCCCCCCCCCCCCCCCCCCCCCC (stereo not drawn) [Cer(d16:1/24:0)],8.54 min
9,CCCCCCCCCCCCCCCCCCCCCC(=O)NC(CO)C(O)CCCCCCCCCCCCCCC (stereo not drawn) [Cer(d18:0/22:0)],8.61 min
10,CCCCCCCCCCCCCCCCCCCCCCCC(=O)NC(CO)C(O)CCCCCCCCCCCCCCC (stereo not drawn) [Cer(d18:0/24:0)],9.14 min
11,CCCCCCCCCCCCCC=CC(O)C(CO)NC(=O)CCCCCCCCCCCCCCC (stereo not drawn) [Cer(d18:1/16:0)],6.5 min
12,CCCCCCCCCCCCCC=CC(O)C(CO)NC(=O)CCCCCCCCCCCCCCCCC (stereo not drawn) [Cer(d18:1/18:0)],7.19 min
13,CCCCCCCCCCCCCC=CC(O)C(CO)NC(=O)CCCCCCCCCCCCCCCCCCC (stereo not drawn) [Cer(d18:1/20:0)],7.86 min
14,CCCCCCCCCCCCCC=CC(O)C(CO)NC(=O)CCCCCCCCCCCCCCCCCCCCC (stereo not drawn) [Cer(d18:1/22:0)],8.46 min
15,CCCCCCCCCCCCCC=CC(O)C(CO)NC(=O)CCCCCCCCCCCCCCCCCCCCCCC (stereo not drawn) [Cer(d18:1/24:0)],9 min
16,CCCCCCCCCCCCCC=CC(O)C(CO)NC(=O)CCCCCCCCCCCCCCCCCCCCCCCC (stereo not drawn) [Cer(d18:1/25:0)],9.26 min
17,CC(C)CCCC(C)C1CCC2C3CC=C4CC(O)CCC4(C)C3CCC12C (stereo not drawn) [Cholesterol],4.54 min
18,CCCCCCCCCCCCCCCC(=O)OCC(CO)OC(=O)CCCCCCCCCCCCCCC (stereo not drawn) [DG(16:0/16:0)],7.6 min
19,CCCCCCCCCCCCCCCCCC(=O)OCC(CO)OC(=O)CCCCCCCCCCCCCCC (stereo not drawn) [DG(18:0/16:0)],8.19 min
20,CCCCCCCCCC(=O)OC(CC(=O)[O-])C[N+](C)(C)C (stereo not drawn) [Decanoylcarnitine CAR(10:0)],0.609 min
21,Cc1cc(O)cc2c1OC(C)(CCCC(C)CCCC(C)CCCC(C)C)CC2 (stereo not drawn) [Delta-Tocopherol],5.02 min
22,CC(C)=CCCC(C)=CC=CC(C)=CC=CC(C)=CC=CC=C(C)C=CC=C(C)C=CC1=C(C)CCCC1(C)C [Gamma-carotene],8.22 min
23,CCCCCCCCCCCCCCCCCCCCCCCCCC(=O)OC(CC(=O)[O-])C[N+](C)(C)C (stereo not drawn) [Hexacosanoylcarnitine CAR(26:0)],5.15 min

row,Compound,LC retention time
1,CCCCCCCCCCCCCCCC(=O)OCC(O)COP(=O)(O)O (stereo not drawn) [LPA(16:0/0:0)],1.58 min
2,CCCCCCCCCCCCCC(=O)OC(CO)COP(=O)([O-])OCC[N+](C)(C)C (stereo not drawn) [LPC(0:0/14:0)],1.27 min
3,CCCCCCCCCCCCCCCC(=O)OC(CO)COP(=O)([O-])OCC[N+](C)(C)C (stereo not drawn) [LPC(0:0/16:0)],1.75 min
4,CCCCCCCCCCCCCCCCCC(=O)OC(CO)COP(=O)([O-])OCC[N+](C)(C)C (stereo not drawn) [LPC(0:0/18:0)],2.3 min
5,CCCCCCCCCCCCCC(=O)OCC(O)COP(=O)([O-])OCC[N+](C)(C)C (stereo not drawn) [LPC(14:0/0:0)],1.36 min
6,CCCCCCCCCCCCCCC(=O)OCC(O)COP(=O)([O-])OCC[N+](C)(C)C (stereo not drawn) [LPC(15:0/0:0)],1.61 min
7,CCCCCCCCCCCCCCCC(=O)OCC(O)COP(=O)([O-])OCC[N+](C)(C)C (stereo not drawn) [LPC(16:0/0:0)],1.87 min
8,CCCCCCCCCCCCCCCCC(=O)OCC(O)COP(=O)([O-])OCC[N+](C)(C)C (stereo not drawn) [LPC(17:0/0:0)],2.14 min
9,CCCCCCCCCCCCCCCCCC(=O)OCC(O)COP(=O)([O-])OCC[N+](C)(C)C (stereo not drawn) [LPC(18:0/0:0)],2.42 min
10,CCCCCCCCCCCCCCCCCCC(=O)OCC(O)COP(=O)([O-])OCC[N+](C)(C)C (stereo not drawn) [LPC(19:0/0:0)],2.7 min
11,CCCCCCCCCCCCCCCCCCCC(=O)OCC(O)COP(=O)([O-])OCC[N+](C)(C)C (stereo not drawn) [LPC(20:0/0:0)],3.02 min
12,CCCCCCCCCCCCCCCCCCCCCC(=O)OCC(O)COP(=O)([O-])OCC[N+](C)(C)C (stereo not drawn) [LPC(22:0/0:0)],3.73 min
13,CCCCCCCCCCCCCCCCCCCCCCCC(=O)OCC(O)COP(=O)([O-])OCC[N+](C)(C)C (stereo not drawn) [LPC(24:0/0:0)],4.52 min
14,CCCCCCCCCCCCCCCCOCC(O)COP(=O)([O-])OCC[N+](C)(C)C (stereo not drawn) [LPC(O-16:0/0:0)],2.09 min
15,CCCCCCCCCCCCCCCCCCOCC(O)COP(=O)([O-])OCC[N+](C)(C)C (stereo not drawn) [LPC(O-18:0/0:0)],2.66 min
16,CCCCCCCCCCCCCCCCCCCCOCC(O)COP(=O)([O-])OCC[N+](C)(C)C (stereo not drawn) [LPC(O-20:0/0:0)],3.31 min
17,CCCCCCCCCCCCCCC=COCC(O)COP(=O)([O-])OCC[N+](C)(C)C (stereo not drawn) [LPC(P-16:0/0:0)],2.09 min
18,CCCCCCCCCCCCCCCCC=COCC(O)COP(=O)([O-])OCC[N+](C)(C)C (stereo not drawn) [LPC(P-18:0/0:0)],2.65 min
19,CCCCCCCCCCCCCCCCCC(=O)OC(CO)COP(=O)(O)OCCN (stereo not drawn) [LPE(0:0/18:0)],2.38 min
20,CCCCCCCCCCCCCCCC(=O)OCC(O)COP(=O)(O)OCCN (stereo not drawn) [LPE(16:0/0:0)],1.93 min
21,CCCCCCCCCCCCCCCCCC(=O)OCC(O)COP(=O)(O)OCCN (stereo not drawn) [LPE(18:0/0:0)],2.48 min
22,CCCCCCCCCCCCCCCCC=COCC(O)COP(=O)(O)OCCN (stereo not drawn) [LPE(P-18:0/0:0)],2.75 min
23,CCCCCCCCCCCCCC=CC(O)C(COC1OC(CO)C(OC2OC(CO)C(O)C(O)C2O)C(O)C1O)NC(=O)CCCCCCCCCCCCCCC (stereo not drawn) [LacCer(d18:1/16:0)],5.75 min

row,Compound,LC retention time
1,CCCCCCCCCCCCCC=CC(O)C(COC1OC(CO)C(OC2OC(CO)C(O)C(O)C2O)C(O)C1O)NC(=O)CCCCCCCCCCCCCCCCCCCCC (stereo not drawn) [LacCer(d18:1/22:0)],7.86 min
2,CCCCCCCCCCCCCC=CC(O)C(COC1OC(CO)C(OC2OC(CO)C(O)C(O)C2O)C(O)C1O)NC(=O)CCCCCCCCCCCCCCCCCCCCCCC (stereo not drawn) [LacCer(d18:1/24:0)],8.4 min
3,CCCCCCCCCCCC(=O)OC(CC(=O)[O-])C[N+](C)(C)C (stereo not drawn) [Lauroylcarnitine CAR(12:0)],0.876 min
4,CC(C=CC=C(C)C=CC1=C(C)CC(O)CC1(C)C)=CC=CC=C(C)C=CC=C(C)C=CC1C(C)=CC(O)CC1(C)C (stereo not drawn) [Luteine],3.74 min
5,CCCCCCCC(=O)OC(CC(=O)O)C[N+](C)(C)C (stereo not drawn) [Octanoylcarnitine CAR(8:0)],0.462 min
6,CCCCCCCCCCCCCCCC(=O)OCC(COP(=O)([O-])OCC[N+](C)(C)C)OC(=O)CCCCCCCCCCCCCC (stereo not drawn) [PC(16:0/15:0)],5.97 min
7,CCCCCCCCCCCCCCCC(=O)OCC(COP(=O)([O-])OCC[N+](C)(C)C)OC(=O)CCCCCCCCCCCCCCC (stereo not drawn) [PC(16:0/16:0)],6.38 min
8,CCCCCCCCCCCCCCCCC(=O)OC(COC(=O)CCCCCCCCCCCCCCC)COP(=O)([O-])OCC[N+](C)(C)C (stereo not drawn) [PC(16:0/17:0)],6.63 min
9,CCCCCCCCCCCCCCCCCC(=O)OCC(COP(=O)([O-])OCC[N+](C)(C)C)OC(=O)CCCCCCCCCCCCCCCCC (stereo not drawn) [PC(18:0/18:0)],7.67 min
10,CCCCCCCCCCCCCCCCOCC(COP(=O)([O-])OCC[N+](C)(C)C)OC(=O)CCCCCCCCCCCCC (stereo not drawn) [PC(O-16:0/14:0)],6.13 min
11,CCCCCCCCCCCCCCCCOCC(COP(=O)([O-])OCC[N+](C)(C)C)OC(=O)CCCCCCCCCCCCCC (stereo not drawn) [PC(O-16:0/15:0)],6.47 min
12,CCCCCCCCCCCCCCCCOCC(COP(=O)([O-])OCC[N+](C)(C)C)OC(=O)CCCCCCCCCCCCCCC (stereo not drawn) [PC(O-16:0/16:0)],6.81 min
13,CCCCCCCCCCCCCCCCCCOCC(COP(=O)([O-])OCC[N+](C)(C)C)OC(=O)CCCCCCCCCCCCCCC (stereo not drawn) [PC(O-18:0/16:0)],7.47 min
14,CCCCCCCCCCCCCCCC(=O)OC(CC(=O)[O-])C[N+](C)(C)C (stereo not drawn) [Palmitoylcarnitine CAR(16:0)],1.75 min
15,CC(C=CC1=C(C)CCCC1(C)C)=CC=CC(C)=CCO [Retinol],2.3 min
16,CCCCCCCCCCCC=CC(O)C(COP(=O)([O-])OCC[N+](C)(C)C)NC(=O)CCCCCCCCCCCCCCCCCCC (stereo not drawn) [SM(d16:1/20:0)],6.5 min
17,CCCCCCCCCCCC=CC(O)C(COP(=O)([O-])OCC[N+](C)(C)C)NC(=O)CCCCCCCCCCCCCCCCCCCCC (stereo not drawn) [SM(d16:1/22:0)],7.23 min
18,CCCCCCCCCCCC=CC(O)C(COP(=O)([O-])OCC[N+](C)(C)C)NC(=O)CCCCCCCCCCCCCCCCCCCCCC (stereo not drawn) [SM(d16:1/23:0)],7.57 min
19,CCCCCCCCCCCC=CC(O)C(COP(=O)([O-])OCC[N+](C)(C)C)NC(=O)CCCCCCCCCCCCCCCCCCCCCCC (stereo not drawn) [SM(d16:1/24:0)],7.9 min
20,CCCCCCCCCCCCCCCC(=O)NC(COP(=O)([O-])OCC[N+](C)(C)C)C(O)CCCCCCCCCCCCCCC (stereo not drawn) [SM(d18:0/16:0)],5.94 min
21,CCCCCCCCCCCCCC=CC(O)C(COP(=O)([O-])OCC[N+](C)(C)C)NC(=O)CCCCCCCCCCCCCCC (stereo not drawn) [SM(d18:1/16:0)],5.68 min
22,CCCCCCCCCCCCCC=CC(O)C(COP(=O)([O-])OCC[N+](C)(C)C)NC(=O)CCCCCCCCCCCCCCCCC (stereo not drawn) [SM(d18:1/18:0)],6.41 min
